# Data: ChEMBL document CHEMBL5150045, “Structure-Guided Design of Halofuginone Derivatives as ATP-Aided Inhibitors Against Bacterial Prolyl-tRNA Synthetase” (J Med Chem, 2022)
# Legend:
# Staphylococcus aureus [1] = experiment: Antibacterial activity against Staphylococcus aureus ATCC25923 assessed as prevention of visible growth by broth microdilution method; assay type: functional
# Homo sapiens = organism: Homo sapiens; experiment: Inhibition of human ProRS expressed in Escherichia coli assessed as change in melting temperature in presence of AMPPNP at 0.5 mM by fluorescence-based thermal shift assay
# Staphylococcus aureus [2] = experiment: Antibacterial activity against methicillin-resistant Staphylococcus aureus R3708 assessed as prevention of visible growth by broth microdilution method; assay type: functional
# Shigella flexneri = experiment: Antibacterial activity against Shigella flexneri CMCC51572 assessed as prevention of visible growth by broth microdilution method; assay type: functional
# Staphylococcus aureus [3] = experiment: Antibacterial activity against methicillin-resistant Staphylococcus aureus 252 assessed as prevention of visible growth by broth microdilution method; assay type: functional
# Escherichia coli [4] = experiment: Antibacterial activity against Escherichia coli ATCC25922 assessed as prevention of visible growth by broth microdilution method; assay type: functional
# Staphylococcus aureus [5] = experiment: Inhibition of methicillin-resistant Staphylococcus aureus ProRS expressed in Escherichia coli assessed as change in melting temperature in presence of AMPPNP at 0.5 mM by fluorescence-based thermal shift assay
# Salmonella typhi = experiment: Antibacterial activity against Salmonella typhi CMCC50094 assessed as prevention of visible growth by broth microdilution method; assay type: functional, Salmonella enterica subsp. enterica serovar Typhi; conditions: Salmonella enterica
# Staphylococcus aureus [6] = experiment: Antibacterial activity against Staphylococcus aureus ATCC29213 assessed as prevention of visible growth by broth microdilution method; assay type: functional
# [7] = Inhibition of methicillin-resistant Staphylococcus aureus ProRS expressed in Escherichia coli assessed as generation of inorganic monophosphate by pre-transfer editing-based experiment
# Staphylococcus aureus [8] = experiment: Ratio of MBC99.9 for methicillin-resistant Staphylococcus aureus 252 to MIC for methicillin-resistant Staphylococcus aureus 252; assay type: functional
# Staphylococcus aureus [9] = experiment: Bactericidal activity against methicillin-resistant Staphylococcus aureus 252 assessed as bacterial killing measured after 24 hrs incubation by CLSI method; assay type: functional; conditions: read-out: MBC99.9
# Escherichia coli [10] = experiment: Ratio of MBC99.9 for Escherichia coli ATCC25922 to MIC for Escherichia coli ATCC25922; assay type: functional
# Staphylococcus aureus [11] = experiment: Resistance development in methicillin-resistant Staphylococcus aureus 252 assessed as fold increase in resistance after 15 days serial passage upto 256 ug/ml; assay type: functional; conditions: dose <= 256 µg/ml; time 15 day
# Escherichia coli [12] = experiment: Resistance development in Escherichia coli ATCC25922 assessed as fold increase in resistance after 15 days serial passage upto 256 ug/ml; assay type: functional; conditions: dose <= 256 µg/ml; time 15 day
Structure (SMILES),MIC (Staphylococcus aureus [1]),ΔTm (Homo sapiens),MIC (Staphylococcus aureus [2]),MIC (Shigella flexneri),MIC (Staphylococcus aureus [3]),MIC (Escherichia coli [4]),ΔTm (Staphylococcus aureus [5]),MIC (Salmonella typhi),MIC (Staphylococcus aureus [6]),IC50 [7],Ratio (Staphylococcus aureus [8]),MBC (Staphylococcus aureus [9]),Ratio (Escherichia coli [10]),fold change (FC) (Staphylococcus aureus [11]),fold change (FC) (Escherichia coli [12])
O=C(C[C@@H]1CCCCN1)Cn1cnc2cc(Br)c(Cl)cc2c1=O,32 µg/mL,17.9 °C,16 µg/mL,16 µg/mL,16 µg/mL,32 µg/mL,6.2 °C,32 µg/mL,16 µg/mL,0.61 µM,–,–,–,–,–
O=C(C[C@@H]1CCCCN1)Cn1cnc2ccccc2c1=O,32 µg/mL,15.7 °C,32 µg/mL,32 µg/mL,16 µg/mL,64 µg/mL,1.3 °C,64 µg/mL,32 µg/mL,18.3 µM,–,–,–,–,–
O=C(C[C@@H]1CCCCN1)Cn1cnc2ccc(F)cc2c1=O,32 µg/mL,17.9 °C,32 µg/mL,16 µg/mL,32 µg/mL,16 µg/mL,6.3 °C,32 µg/mL,32 µg/mL,8.2 µM,–,–,–,–,–
O=C(C[C@@H]1CCCCN1)Cn1cnc2cccc(Cl)c2c1=O,> 64 µg/mL,15.9 °C,> 64 µg/mL,> 64 µg/mL,> 64 µg/mL,> 64 µg/mL,3 °C,> 64 µg/mL,> 64 µg/mL,5.59 µM,–,–,–,–,–
O=c1c2cc(Cl)c(Cl)cc2ncn1CCC[C@@H]1CCCCN1,> 64 µg/mL,12.4 °C,> 64 µg/mL,> 64 µg/mL,> 64 µg/mL,> 64 µg/mL,2 °C,> 64 µg/mL,> 64 µg/mL,6.8 µM,–,–,–,–,–
O=c1c2cc(Cl)c(Br)cc2ncn1CCC[C@@H]1CCCCN1,64 µg/mL,15.1 °C,64 µg/mL,64 µg/mL,64 µg/mL,64 µg/mL,2.5 °C,64 µg/mL,32 µg/mL,12.4 µM,–,–,–,–,–
O=c1c2ccccc2ncn1CCC[C@@H]1CCCCN1,> 64 µg/mL,4.2 °C,> 64 µg/mL,> 64 µg/mL,> 64 µg/mL,> 64 µg/mL,0 °C,> 64 µg/mL,> 64 µg/mL,> 100 µM,–,–,–,–,–
O=C(C[C@@H]1CCCCN1)Cn1cnc2nccnc2c1=O,> 64 µg/mL,4.9 °C,> 64 µg/mL,> 64 µg/mL,> 64 µg/mL,> 64 µg/mL,0 °C,> 64 µg/mL,> 64 µg/mL,> 100 µM,–,–,–,–,–
CC1(C)S[C@@H]2[C@H](NC(=O)[C@H](N)c3ccccc3)C(=O)N2[C@H]1C(=O)O [AMPICILLIN],–,–,–,2 µg/mL,–,–,–,2 µg/mL,–,–,–,–,–,–,–
O=C(C[C@@H]1CCCCN1)Cn1cnc2cc(F)c(F)cc2c1=O,32 µg/mL,19.2 °C,32 µg/mL,4 µg/mL,16 µg/mL,4 µg/mL,7.3 °C,16 µg/mL,16 µg/mL,0.63 µM,8,128 µg/mL,16,–,–
O=C(C[C@@H]1CCCCN1)Cn1cnc2ccc(C(F)(F)F)cc2c1=O,64 µg/mL,9.9 °C,64 µg/mL,64 µg/mL,64 µg/mL,64 µg/mL,1.2 °C,64 µg/mL,32 µg/mL,> 100 µM,–,–,–,–,–
O=C(C[C@@H]1CCCCN1)Cn1cnc2cc3ccccc3cc2c1=O,> 64 µg/mL,7.9 °C,> 64 µg/mL,> 64 µg/mL,> 64 µg/mL,> 64 µg/mL,0 °C,> 64 µg/mL,> 64 µg/mL,> 100 µM,–,–,–,–,–
O=C(C[C@@H]1CCCCN1)Cn1cnc2cc(F)ccc2c1=O,32 µg/mL,18.1 °C,32 µg/mL,8 µg/mL,32 µg/mL,16 µg/mL,6.9 °C,32 µg/mL,32 µg/mL,1.71 µM,–,–,–,–,–
O=C(C[C@@H]1CCCCN1)Cn1cnc2cc3c(cc2c1=O)OCO3,> 64 µg/mL,15.9 °C,> 64 µg/mL,> 64 µg/mL,> 64 µg/mL,> 64 µg/mL,2.1 °C,> 64 µg/mL,> 64 µg/mL,36.3 µM,–,–,–,–,–
O=C(C[C@@H]1CCCCN1)Cn1cnc2cc(C(F)(F)F)ccc2c1=O,> 64 µg/mL,16.9 °C,> 64 µg/mL,> 64 µg/mL,> 64 µg/mL,> 64 µg/mL,3.4 °C,> 64 µg/mL,> 64 µg/mL,1.28 µM,–,–,–,–,–
Cc1cc2ncn(CC(=O)C[C@@H]3CCCCN3)c(=O)c2cc1C,> 64 µg/mL,13.9 °C,> 64 µg/mL,> 64 µg/mL,> 64 µg/mL,> 64 µg/mL,1.3 °C,> 64 µg/mL,> 64 µg/mL,17.6 µM,–,–,–,–,–
O=C(C[C@@H]1CCCCN1)Cn1cnc2cc(Cl)c(Cl)cc2c1=O,16 µg/mL,18.9 °C,4 µg/mL,16 µg/mL,4 µg/mL,16 µg/mL,7.9 °C,32 µg/mL,8 µg/mL,0.51 µM,16,64 µg/mL,–,–,–
O=c1c2cc(Cl)c(Br)cc2ncn1CC(O)C[C@@H]1CCCCN1 (stereo not given in full),> 64 µg/mL,11.9 °C,> 64 µg/mL,> 64 µg/mL,> 64 µg/mL,> 64 µg/mL,0 °C,> 64 µg/mL,> 64 µg/mL,> 100 µM,–,–,–,–,–
COc1cc2ncn(CC(=O)C[C@@H]3CCCCN3)c(=O)c2cc1OC,> 64 µg/mL,4.2 °C,> 64 µg/mL,> 64 µg/mL,> 64 µg/mL,> 64 µg/mL,0 °C,> 64 µg/mL,> 64 µg/mL,> 100 µM,–,–,–,–,–
O=C(C[C@@H]1CCCCN1)Cn1cnc2cccnc2c1=O,> 64 µg/mL,6.9 °C,> 64 µg/mL,> 64 µg/mL,> 64 µg/mL,> 64 µg/mL,0 °C,> 64 µg/mL,> 64 µg/mL,> 100 µM,–,–,–,–,–
C[C@H]1COc2c(N3CCN(C)CC3)c(F)cc3c(=O)c(C(=O)O)cn1c23.C[C@H]1COc2c(N3CCN(C)CC3)c(F)cc3c(=O)c(C(=O)O)cn1c23.O [LEVOFLOXACIN],–,–,–,–,–,–,–,–,–,–,–,–,–,64,–
O=C(O)c1cn(C2CC2)c2cc(N3CCNCC3)c(F)cc2c1=O [CIPROFLOXACIN],–,–,–,2 µg/mL,–,–,–,–,–,–,–,–,–,–,16
CC(C)(C)c1ccc2c(=O)n(CC(=O)C[C@@H]3CCCCN3)cnc2c1,> 64 µg/mL,3.9 °C,> 64 µg/mL,> 64 µg/mL,> 64 µg/mL,> 64 µg/mL,0 °C,> 64 µg/mL,> 64 µg/mL,> 100 µM,–,–,–,–,–
